From patent US8207330B2, “Two-photon absorption material and application thereof” (Ricoh Company, Ltd., priority 2008, dated 2012)

experiment: Two-photon absorption cross-sectional area, Z scan method, Examples B; format: physicochemical; details: tetrahydrofuran solution, femtosecond laser, 780 nm to 960 nm (710 nm to 990 nm)
Method: Each of Compounds (1), (2), (57), (58), (59), (60), (3), (4), (61), (62), (25), (26), (63), (64), (65), (66), (45), (67), (68), (69), (70), (71), (72), (5), (9), (13), (19), (27), (31), (32), (34), (36), (39), (44), (53) and (55) was dissolved in tetrahydrofuran, and the resultant tetrahydrofuran solution was measured for its two-photon absorption cross-sectional area according to the below-described evaluation method therefor.
This measurement was performed under the following conditions:
Sample concentration: 10^−2 mol to 10^−5 mol (this range covering optimal concentrations of the samples (at which measurements are easily performed));
Light path length of cell: 10 mm (corresponding to the inner diameter of cuvette);
Light: variable femtosecond laser having a wavelength of 710 nm to 990 nm; and
Light power: 10 mW to 800 mW.
The following compound (73) was dissolved in tetrahydrofuran, and the resultant solution was measured for its two-photon absorption cross-sectional area according to the below-described evaluation method therefor.
The following compound (74) was dissolved in tetrahydrofuran, and the resultant solution was measured for its two-photon absorption cross-sectional area according to the below-described evaluation method therefor.
[drawing 68] [Method for Measuring Two-Photon Absorption Cross-Sectional Area]
FIG. 8 schematically illustrates a system of the method.
Measuring light source: femtosecond titanium sapphire laser
Repetition frequency: 80 MHz
Measuring method: Z scan method
Inner diameter of cuvette: 10 mm
Light power for measurement: about 500 mW
Collection diameter: 40 μm to 50 μm
A quartz cell filled with each sample solution was placed in a light path through which a focused laser beam was passed. Then, the cell was moved along the light path for Z-scan measurement.
The sample solution was measured for its transmittance, and the thus-obtained value and the following theoretical equation (I) were used to determine a nonlinear absorption coefficient of the sample. T=[ln(1+I0L0β)]/I0L0β (I)
where T denotes a transmittance (%), I0 denotes an excited light density [GW/cm^2], L0 denotes a sample cell length [cm], and β denotes a nonlinear absorption coefficient [cm/GW].
The thus-determined nonlinear absorption coefficient and the following equation (ii) were used to calculate a two-photon absorption cross-sectional area σ. Note that the unit of σ is GM (1 GM=1×10^−50 cm^4·s·photon^−1). σ=1,000×hvβ/[…] (ii)
where h denotes the Planck's constant [J·s], v denotes a frequency of an incident laser beam [s^−1], NA denotes the Avogadoro's number, and C denotes a concentration of a solution [mol/L].

| SMILES | Two-photon absorption cross-sectional area |
| --- | --- |
| CC1=C(C)c2nc1c(-c1ccc(C#N)cc1)c1[nH]c(c(C)c1C)c(-c1ccc(/C=C/c3ccc(N(c4ccccc4)c4ccc(C)cc4)cc3)cc1)c1nc(c(-c3ccc(C#N)cc3)c3[nH]c(c(C)c3C)c2-c2ccc(/C=C/c3ccc(N(c4ccccc4)c4ccc(C)cc4)cc3)cc2)C(C)=C1C [(5)] | 980 GM |
| CN(C)c1ccc(/C=C/C2=c3ccc4[n]3[Zn][n]3c(ccc3C(c3ccccn3)=C3C=CC2=N3)C(c2ccc(/C=C/c3ccc(N(c5ccccc5)c5ccccc5)cc3)cc2)=C2C=CC(=N2)C=4c2ccccn2)cc1 [(13)] | 1,030 GM |
| CCCCCCc1ccc(N(c2ccc(-c3c4nc(c(-c5c(C)cc(C)cc5C)c5[nH]c(cc6nc(c(-c7c(C)cc(C)cc7C)c7[nH]c3c(CC)c7C)C(C)=C6CC)c(CC)c5C)C(C)=C4CC)cc2)c2ccc(-c3c4nc(c(-c5c(C)cc(C)cc5C)c5[nH]c(cc6nc(c(-c7c(C)cc(C)cc7C)c7[nH]c3c(CC)c7C)C(C)=C6CC)c(CC)c5C)C(C)=C4CC)cc2)cc1 [(25)] | 860 GM |
| CCCCCCc1ccc(N(c2ccc(C3=C4N=C(C(C)=C4CC)C(c4c(C)cc(C)cc4C)=c4c(C)c(CC)c5[n]4[Zn][n]4c(c(C)c(CC)c43)C(c3c(C)cc(C)cc3C)=C3N=C(C=5)C(CC)=C3C)cc2)c2ccc(C3=c4c(CC)c(C)c5[n]4[Zn][n]4c(c(CC)c(C)c4C(c4c(C)cc(C)cc4C)=C4N=C3C(CC)=C4C)C=C3N=C(C(C)=C3CC)C=5c3c(C)cc(C)cc3C)cc2)cc1 [(26)] | 1,120 GM |
| CCC1=C(CC)c2nc1c(Br)c1[nH]c(c(CC)c1CC)c(-c1ccc([N+](=O)[O-])cc1)c1nc(c(-c3ccc4c(c3)C(C)(C)c3cc(-c5c6nc(c(-c7ccc([N+](=O)[O-])cc7)c7[nH]c(c(Br)c8nc(c(-c9ccc([N+](=O)[O-])cc9)c9[nH]c5c(CC)c9CC)C(CC)=C8CC)c(CC)c7CC)C(CC)=C6CC)ccc3-4)c3[nH]c(c(CC)c3CC)c2-c2ccc([N+](=O)[O-])cc2)C(CC)=C1CC [(27)] | 810 GM |
| CCCCCCc1ccc(N(c2ccc(C3=C4C=CC(=N4)C(c4ccccc4C)=c4ccc5[n]4[Pd][n]4c3ccc4C(c3ccccc3C)=C3C=CC(=N3)C=5c3ccc(/C=C/c4ccc(N(c5ccccc5)c5ccccc5)cc4)cc3)cc2)c2ccc(C3=c4ccc5[n]4[Pd][n]4c(ccc4C(c4ccccc4C)=C4C=CC3=N4)C=C3C=CC(=N3)C=5c3ccccc3C)cc2)cc1 [(31)] | 890 GM |
| CCC1=C(C)C2=NC1=Cc1c(CC)c(C)c3[n]1[Ni][n]1c(c(C)c(CC)c1=C(c1ccc(N(c4ccccc4)c4ccc(C5=C6N=C(C(C)=C6CC)C(c6ccncc6)=c6c(C)c(CC)c7[n]6[Ni][n]6c(c(C)c(CC)c65)C(c5ccncc5)=C5N=C(C(CC)=C5C)C=7/C=C/c5ccc(N(c6ccccc6)c6ccccc6)cc5)cc4)cc1)C1=NC(=C3c3ccncc3)C(C)=C1CC)=C2c1ccncc1 [(32)] | 900 GM |
| CCCCC(CC)COc1ccc(N(c2ccc(C3=C4N=C(C(C)=C4CC)C(c4ccccc4C(=O)OC)=c4c(C)c(CC)c5[n]4[Zn][n]4c(c(C)c(CC)c43)C(c3ccccc3C(=O)OC)=C3N=C(C=5)C(CC)=C3C)cc2)c2ccc(C3=c4c(CC)c(C)c5[n]4[Zn][n]4c(c(CC)c(C)c4C(c4ccccc4C(=O)OC)=C4N=C3C(CC)=C4C)C=C3N=C(C(C)=C3CC)C=5c3ccccc3C(=O)OC)cc2)cc1 (stereo not shown) [(34)] | 1,010 GM |
| CCCCCCc1ccc(N(c2ccc(C3=C4C(C(=O)OC)=CC5=[N+]4[Co@]46[n]7c(cc(C(=O)OC)c73)C(c3ccc([N+](=O)[O-])cc3)=C3C=C(C(=O)OC)C(=[N+]34)C=c3c(C(=O)OC)cc([n]36)=C5c3ccc([N+](=O)[O-])cc3)cc2)c2ccc(C3=c4c(C(=O)OC)cc5[n]4[Co@]46[n]7c(cc(C(=O)OC)c7C=C7C(C(=O)OC)=CC(=[N+]74)C=5c4ccc([N+](=O)[O-])cc4)C(c4ccc([N+](=O)[O-])cc4)=C4C=C(C(=O)OC)C3=[N+]46)cc2)cc1 [(36)] | 860 GM |
| CCC1=C(C)c2nc1cc1[nH]c(c(C)c1CC)c(-c1ccccc1C(F)(F)F)c1nc(c(-c3ccc4c(c3)C(C)(C)c3cc(-c5c6nc(c(-c7ccccc7C(F)(F)F)c7[nH]c(cc8nc(c(-c9ccccc9C(F)(F)F)c9[nH]c5c(CC)c9C)C(C)=C8CC)c(CC)c7C)C(C)=C6CC)ccc3-4)c3[nH]c(c(C)c3CC)c2-c2ccccc2C(F)(F)F)C(CC)=C1C [(39)] | 890 GM |
| CC1=C(C)C2=C(I)c3c(C)c(C)c4[n]3[Zn][n]3c(cc(C)c3=C(c3ccccc3C(F)(F)F)C1=N2)=C(c1ccc2c(c1)C(C)(C)c1cc(C3=C5N=C(C(C)=C5C)C(c5ccccc5C(F)(F)F)=c5c(C)c(C)c6[n]5[Zn][n]5c3c(C)c(C)c5C(c3ccccc3C(F)(F)F)=C3N=C(C(C)=C3C)C=6I)ccc1-2)C1=NC(=C4c2ccccc2C(F)(F)F)C(C)=C1C [(44)] | 1,000 GM |
| CCCCCCC1(CCCCCC)c2cc(C3=C4C=CC(=N4)C(c4cc(OC)c(OC)c(OC)c4)=c4ccc5[n]4[Zn][n]4c(ccc43)C(c3cc(OC)c(OC)c(OC)c3)=C3C=CC(=N3)C=5/C=C/c3ccc(N(c4ccccc4)c4ccccc4)cc3)ccc2-c2ccc(C3=c4ccc5[n]4[Zn][n]4c(ccc4C(c4cc(OC)c(OC)c(OC)c4)=C4C=CC3=N4)C=C3C=CC(=N3)C=5c3cc(OC)c(OC)c(OC)c3)cc21 [(45)] | 1,200 GM |
| CCC1=C(C)c2nc1c(Br)c1[nH]c(c(C)c1CC)c(Br)c1nc(c(-c3ccc(N(c4ccccc4)c4ccc(-c5c6nc(c(-c7ccccc7C(F)(F)F)c7[nH]c(c(Br)c8nc(c(Br)c9[nH]c5c(CC)c9C)C(C)=C8CC)c(CC)c7C)C(C)=C6CC)cc4)cc3)c3[nH]c(c(C)c3CC)c2-c2ccccc2C(F)(F)F)C(CC)=C1C [(53)] | 840 GM |
| CCC1=C(C)c2cc3[nH]c(c(CC)c3C)c(-c3ccc(N(c4ccccc4)c4ccc(-c5c6nc(cc7[nH]c(cc8nc(c(-c9ccc(-c%10ccccn%10)nc9)c9[nH]c5c(CC)c9C)C(C)=C8CC)c(CC)c7C)C(C)=C6CC)cc4)cc3)c3nc(c(-c4ccc(-c5ccccn5)nc4)c4[nH]c(cc1n2)c(CC)c4C)C(C)=C3CC [(55)] | 850 GM |
| CCC1=C(C)C2=C(c3cc(OC)c(OC)c(OC)c3)c3c(C)c(CC)c4[n]3[Cu][n]3c(c(C)c(CC)c3=C(c3ccc(/C=C/c5ccc(N(c6ccc(C)cc6)c6ccc(C)cc6)cc5)cc3)C1=N2)=C(c1cc(OC)c(OC)c(OC)c1)C1=NC(=C4c2ccc(/C=C/c3ccc(N(c4ccc(C)cc4)c4ccc(C)cc4)cc3)cc2)C(CC)=C1C [(62)] | 840 GM |
| CCCCCCc1ccc(N(c2ccc(C3=C4N=C(C(C)=C4CC)C(c4c(C)cc(C)cc4C)=c4c(C)c(CC)c5[n]4[Ni][n]4c(c(C)c(CC)c43)C(c3c(C)cc(C)cc3C)=C3N=C(C=5)C(CC)=C3C)cc2)c2ccc(C3=c4c(CC)c(C)c5[n]4[Ni][n]4c(c(CC)c(C)c4C(c4c(C)cc(C)cc4C)=C4N=C3C(CC)=C4C)C=C3N=C(C(C)=C3CC)C=5c3c(C)cc(C)cc3C)cc2)cc1 [(63)] | 900 GM |
| CCCCCCc1ccc(N(c2ccc(C3=C4N=C(C(C)=C4CC)C(c4c(C)cc(C)cc4C)=c4c(C)c(CC)c5[n]4[Pd][n]4c(c(C)c(CC)c43)C(c3c(C)cc(C)cc3C)=C3N=C(C=5)C(CC)=C3C)cc2)c2ccc(C3=c4c(CC)c(C)c5[n]4[Pd][n]4c(c(CC)c(C)c4C(c4c(C)cc(C)cc4C)=C4N=C3C(CC)=C4C)C=C3N=C(C(C)=C3CC)C=5c3c(C)cc(C)cc3C)cc2)cc1 [(64)] | 890 GM |
| CCCCCCc1ccc(N(c2ccc(C3=C4N=C(C(C)=C4CC)C(c4c(C)cc(C)cc4C)=c4c(C)c(CC)c5[n]4[Co][n]4c(c(C)c(CC)c43)C(c3c(C)cc(C)cc3C)=C3N=C(C=5)C(CC)=C3C)cc2)c2ccc(C3=c4c(CC)c(C)c5[n]4[Co][n]4c(c(CC)c(C)c4C(c4c(C)cc(C)cc4C)=C4N=C3C(CC)=C4C)C=C3N=C(C(C)=C3CC)C=5c3c(C)cc(C)cc3C)cc2)cc1 [(65)] | 810 GM |
| CCCCCCc1ccc(N(c2ccc(C3=C4N=C(C(C)=C4CC)C(c4c(C)cc(C)cc4C)=c4c(C)c(CC)c5[n]4[Cu][n]4c(c(C)c(CC)c43)C(c3c(C)cc(C)cc3C)=C3N=C(C=5)C(CC)=C3C)cc2)c2ccc(C3=c4c(CC)c(C)c5[n]4[Cu][n]4c(c(CC)c(C)c4C(c4c(C)cc(C)cc4C)=C4N=C3C(CC)=C4C)C=C3N=C(C(C)=C3CC)C=5c3c(C)cc(C)cc3C)cc2)cc1 [(66)] | 820 GM |
